From PubChem BioAssay AID1919016 (Molecular Pharmacology Branch, DTP, NCI, 2023)
pIC50: −log10 of the molar value. Values joined by “and” are separate entries in the source; they are usually repeats but may differ in a detail not shown here. Equal values may be shown once.

Test system: NCI-H196 complex spheroid growth, percent test/control
Test: Anticancer human tumor NCI-H196 cell line growth inhibition [AhR];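 note: seven days of drug exposure starting three days after plating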;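 for viability, T/C: 100% = DMSO vehicle control wells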
Conditions: for viability, T/C: stronger effect = lower value; active = viability on the fitted dose curve at most 10% of control; inactive = the rest
Summary of the method: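 Agents were dosed in half-log steps down from roughly clinical Cmax, or from 10 microM where Cmax was unknown, alone and with AhR antagonists. Read-out: percent test/control growth of tumor spheroids containing HUVEC and MSC stromal cells.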

[1] = curve of first compound, second compound 0.1 µM
[2] = curve of first compound, second compound 0.316 µM
[3] = curve of first compound, second compound 1 µM
[4] = curve of first compound, second compound 3.16 µM
[5] = curve of first compound, second compound 10 µM

Nc1ncn(C2CC(O)C(CO)S2)c(=O)n1 (centres undefined) + Cc1cncc(-c2nc(NCCc3c[nH]c4ccccc34)c3ncn(C(C)C)c3n2)c1
< 6.52: pIC50 [1] | pIC50 [2] | pIC50 [3] | pIC50 [4] | pIC50 [5]
inactive: viability, T/C (second compound 0.1 µM, first compound 0.000949 µM) 109% | viability, T/C (second compound 0.1 µM, first compound 0.003 µM) 112% | viability, T/C (second compound 0.1 µM, first compound 0.00949 µM) 109% | viability, T/C (second compound 0.1 µM, first compound 0.03 µM) 111% | viability, T/C (second compound 0.1 µM, first compound 0.0949 µM) 118% | viability, T/C (second compound 0.1 µM, first compound 0.3 µM) 116% | viability, T/C (second compound 0.316 µM, first compound 0.000949 µM) 101% | viability, T/C (second compound 0.316 µM, first compound 0.003 µM) 110% | viability, T/C (second compound 0.316 µM, first compound 0.00949 µM) 113% | viability, T/C (second compound 0.316 µM, first compound 0.03 µM) 112% | viability, T/C (second compound 0.316 µM, first compound 0.0949 µM) 115% | viability, T/C (second compound 0.316 µM, first compound 0.3 µM) 111% | viability, T/C (second compound 1 µM, first compound 0.000949 µM) 107% | viability, T/C (second compound 1 µM, first compound 0.003 µM) 110% | viability, T/C (second compound 1 µM, first compound 0.00949 µM) 108% | viability, T/C (second compound 1 µM, first compound 0.03 µM) 116% | viability, T/C (second compound 1 µM, first compound 0.0949 µM) 121% | viability, T/C (second compound 1 µM, first compound 0.3 µM) 123% | viability, T/C (second compound 3.16 µM, first compound 0.000949 µM) 118% | viability, T/C (second compound 3.16 µM, first compound 0.003 µM) 125% | viability, T/C (second compound 3.16 µM, first compound 0.00949 µM) 115% | viability, T/C (second compound 3.16 µM, first compound 0.03 µM) 114% | viability, T/C (second compound 3.16 µM, first compound 0.0949 µM) 116% | viability, T/C (second compound 3.16 µM, first compound 0.3 µM) 117% | viability, T/C (second compound 10 µM, first compound 0.000949 µM) 92.3% | viability, T/C (second compound 10 µM, first compound 0.003 µM) 92.9% | viability, T/C (second compound 10 µM, first compound 0.00949 µM) 101% | viability, T/C (second compound 10 µM, first compound 0.03 µM) 101% | viability, T/C (second compound 10 µM, first compound 0.0949 µM) 93.8% | viability, T/C (second compound 10 µM, first compound 0.3 µM) 106%

O=C(c1cc(Cc2n[nH]c(=O)c3ccccc23)ccc1F)N1CCN(C(=O)C2CC2)CC1
< 5.00: pIC50 (curve of compound)
inactive: viability, T/C (compound 0.0316 µM) 106% and 105% and 100% | viability, T/C (compound 0.1 µM) 105% and 112% and 108% | viability, T/C (compound 0.316 µM) 99.7% and 98.5% and 104% | viability, T/C (compound 1 µM) 97.2% and 98.1% and 105% | viability, T/C (compound 3.16 µM) 97.2% and 96.9% and 99.9% | viability, T/C (compound 10 µM) 99.7% and 103% and 99.5%

COc1cccc2c1C(=O)c1c(O)c3c(c(O)c1C2=O)CC(O)(C(=O)CO)CC3OC1CC(N)C(O)C(C)O1 (centres undefined) + Cc1ccccc1N=Nc1ccc(NC(=O)c2ccnn2C)c(C)c1
6.19: pIC50 [4]
inactive: viability, T/C (second compound 0.1 µM, first compound 0.0316 µM) 113% | viability, T/C (second compound 0.1 µM, first compound 0.1 µM) 102% | viability, T/C (second compound 0.1 µM, first compound 0.316 µM) 79.4% | viability, T/C (second compound 0.1 µM, first compound 1 µM) 36.2% | viability, T/C (second compound 0.316 µM, first compound 0.0316 µM) 101% | viability, T/C (second compound 0.316 µM, first compound 0.1 µM) 100% | viability, T/C (second compound 0.316 µM, first compound 0.316 µM) 76.8% | viability, T/C (second compound 0.316 µM, first compound 1 µM) 36.7% | viability, T/C (second compound 1 µM, first compound 0.0316 µM) 99.5% | viability, T/C (second compound 1 µM, first compound 0.1 µM) 105% | viability, T/C (second compound 1 µM, first compound 0.316 µM) 78.5% | viability, T/C (second compound 1 µM, first compound 1 µM) 35.9% | viability, T/C (second compound 3.16 µM, first compound 0.0316 µM) 91.5% | viability, T/C (second compound 3.16 µM, first compound 0.1 µM) 93.8% | viability, T/C (second compound 3.16 µM, first compound 0.316 µM) 76.6% | viability, T/C (second compound 3.16 µM, first compound 1 µM) 34.7% | viability, T/C (second compound 10 µM, first compound 0.0316 µM) 97.2% | viability, T/C (second compound 10 µM, first compound 0.1 µM) 92.2% | viability, T/C (second compound 10 µM, first compound 0.316 µM) 90.7% | viability, T/C (second compound 10 µM, first compound 1 µM) 44.3%
active: viability, T/C (second compound 0.1 µM, first compound 3.16 µM) 3.08% | viability, T/C (second compound 0.1 µM, first compound 10 µM) 7.85% | viability, T/C (second compound 0.316 µM, first compound 3.16 µM) 1.54% | viability, T/C (second compound 0.316 µM, first compound 10 µM) 5.07% | viability, T/C (second compound 1 µM, first compound 3.16 µM) 2.43% | viability, T/C (second compound 1 µM, first compound 10 µM) 8.49% | viability, T/C (second compound 3.16 µM, first compound 3.16 µM) 2.43% | viability, T/C (second compound 3.16 µM, first compound 10 µM) 13% | viability, T/C (second compound 10 µM, first compound 3.16 µM) 2.3% | viability, T/C (second compound 10 µM, first compound 10 µM) 12.7%
6.18: pIC50 [1] | pIC50 [2] | pIC50 [3]
6.06: pIC50 [5]

CC(C)CC(NC(=O)C(Cc1ccccc1)NC(=O)c1cnccn1)B(O)O (centres undefined)
active: viability, T/C (compound 0.03 µM) 2.1% and 7.38% and 4.57% | viability, T/C (compound 0.0949 µM) 1.67% and 5.37% and 2.7% | viability, T/C (compound 0.3 µM) 2.25% and 4.21% and 2%
8.14 and 7.83 and 8.13: pIC50 (curve of compound)
inactive: viability, T/C (compound 0.000949 µM) 98.7% and 106% and 105% | viability, T/C (compound 0.003 µM) 96.1% and 99.1% and 101% | viability, T/C (compound 0.00949 µM) 36.6% and 76.3% and 35.7%
